Assay results reported in publication PMC4660270 (Structure (London, England : 1993), 2015).
pKd: −log10 of the molar value.

Biological target: TEAD4 (Homo sapiens, UniProt Q15561)
Experiment: ITC
Format: binding

Chain of TEAD4 (Q15561 217-434): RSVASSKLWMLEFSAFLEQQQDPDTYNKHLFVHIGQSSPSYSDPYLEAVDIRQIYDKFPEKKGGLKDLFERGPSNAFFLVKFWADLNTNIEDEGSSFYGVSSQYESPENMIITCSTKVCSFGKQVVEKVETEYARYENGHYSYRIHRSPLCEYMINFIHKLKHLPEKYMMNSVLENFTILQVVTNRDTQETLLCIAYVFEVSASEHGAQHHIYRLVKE

**Q.** How did the pKd turn out when `O=C(O)c1ccccc1Nc1cccc(C(F)(F)F)c1` [FA, flufenamic acid] was run?
**A.** The pKd was roughly 4.14.
